Data published in patent US12133855B2, “Lipid-like nanocomplexes and uses thereof” (Trustees of Tufts College, priority 2018, dated 2024).
Where two headings read alike, the source gives them in different places.

Legend:
Type in all cases: cell-based
HeLa cells [1] = assay: Internalization of Nile red loaded nanoparticles (NR+ cells); details: 8 h of exposure
Experimental: (§1) The internalization kinetics and efficiencies of OCholB LNPs were then studied using NR loaded LNPs and HeLa cells. […] Next, all of the NR delivery efficiencies of eight OCholB LNPs were determined after 8 h of exposure. […] Representative fluorescent images of NR/LNPs (NR/75-OCholB, NR/76-OCholB and NR/77-OCholB) treated HeLa cells are shown in FIG. 12D, from which it is easily observed that NR was delivered into the cells and mainly distributed in cytoplasm, by OCholB LNPs. Next, the internalization of negatively charged hydrophilic fluorescent dye, calcein, was studied. […] Next, the use of OCholB LNPs for the intracellular delivery of macromolecular cargo was explored, using fluorescent recombinant (−30)GFP-Cre protein and HeLa-DsRed cells as the model system. […] Delivery efficiency was tested at a range of (−30)GFP-Cre protein concentrations (25, 50 and 100 nM), with a consistent lipid/protein ratio (i.e., delivery with the final lipid concentration of 1.7, 3.3, and 6.6 μg mL^−1 respectively). 33.2%, 43.8% and 74% of GFP positive (GFP^+) cells were recorded for (−30)GFP-Cre/Lpf2k treated cells with the concentration of (−30)GFP-Cre 25 nM, 50 nM and 100 nM, respectively. […] The typical flow cytometry profiles of naked (−30)GFP-Cre protein and (−30)GFP-Cre loaded nanoparticles ((−30)GFP-Cre/75-OCholB, (−30)GFP-Cre/76-OCholB, (−30)GFP-Cre/77-OCholB and (−30)GFP-Cre/Lpf2k) treated HeLa-DsRed cells were shown in and FIG. 12H ([lipidoid]=6.6 μg mL^−1 and [(−30)GFP-Cre]=100 nM), which is consistent with the statistical results shown in FIG. 12G. Furthermore, the representative fluorescent images from the protein and protein/nanoparticle treated HeLa-DsRed cells are also shown in FIG. 12I.

HeLa-DsRed cells = details: for cell morphology (bright field images) vs untreated cells / mean fluorescence intensity of treated cells: [lipidoid]=6.6 μg mL^−1, [(−30)GFP-Cre]=100 nM; for green fluorescence signals (fluorescent images): protein/nanoparticle treated HeLa-DsRed cells
Experimental: as §1

HeLa cells [2] = assay: GFP mRNA delivery (GFP+ cells); details: LNP/mRNA=10/1; [mRNA]=0.86 μg mL^−1; 24 h exposure
Description: Messenger RNA delivery has great potentials for cancer therapy, protein replacement therapy and neurological disorder treatments.^42 The intracellular delivery of mRNA using OCholB LNPs was studied using GFP mRNA and different cell lines (HeLa, B16F10, HEK-293, NIH/3T3 and Jurkat). The weight ratio of LNP/mRNA was optimized at first using HeLa cells. […] The weight ratio of LNP/mRNA=10/1 was then chose for the following mRNA delivery studies. […] Then the intracellular delivery efficiencies of all fully substituted OCholB LNPs were tested against HeLa cells, and Lpf2k and naked GFP mRNA were used as controls (LNP/mRNA=10/1; [mRNA]=0.86 μg mL^−1; 24 h exposure). […] As to the OCholB LNPs, 75-OCholB (62.0% of GFP^+ cells), 76-OCholB (79.8%), 77-OCholB (73.5%), 78-OCholB (67.1%), 80-OCholB (55.6%), 81-OCholB (51.6%) and 304-OCholB (52.1%) are all determined to be effective. Typical fluorescent images of mRNA/LNPs (mRNA/75-OCholB, mRNA/76-OCholB and mRNA/77-OCholB) treated HeLa cells are shown in FIG. 14C. Comparing to untreated HeLa cells, strong green fluorescent signals were recoded from nanoparticles incubated cells, which is consistent with the flow cytometry data as shown in FIG. 14D. Meanwhile, both 87-OCholB (6.1%) and 90-OCholB (2.5%) are found to be inefficient for GFP mRNA delivery into HeLa cells, which is consistent with the internalization studies using NR (FIG. 12C) and (−30)GFP-Cre protein (FIG. 12F) as the fluorescent reporters.

[3] = (−30)GFP-Cre 50 nM, lipid 3.3 μg mL^−1
[4] = (−30)GFP-Cre 100 nM, lipid 6.6 μg mL^−1
[5] = (−30)GFP-Cre 25 nM, lipid 1.7 μg mL^−1

Row | SMILES | NR^+ cells (HeLa cells [1]) [%] | GFP positive (GFP^+) cells (HeLa-DsRed cells; [3]) [%] | GFP positive (GFP^+) cells (HeLa-DsRed cells; [4]) [%] | cell morphology (bright field images) vs untreated cells (HeLa-DsRed cells) | mean fluorescence intensity of treated cells (HeLa-DsRed cells) | green fluorescence signals (fluorescent images) (HeLa-DsRed cells) | GFP^+ cells (HeLa cells [2]) [%] | GFP positive (GFP^+) cells (HeLa-DsRed cells; [5]) [%]
1 | CCN(CC)CCN(CCC(=O)OCCSSCCNC(=O)OC1CCC2(C)C(=CCC3C2CCC2(C)C(C(C)CCCC(C)C)CCC32)C1)CCC(=O)OCCSSCCNC(=O)OC1CCC2(C)C(=CCC3C2CCC2(C)C(C(C)CCCC(C)C)CCC32)C1 (stereo not drawn) [Lipidoid 75-OCholB] | 85.2 | 42.3 | 93.1 | no evident morphological change | much more efficient than others | Strong green fluorescence signals | 62.0 | –
2 | CC(C)CCCC(C)C1CCC2C3CC=C4CC(OC(=O)NCCSSCCOC(=O)CCN(CCC(=O)OCCSSCCNC(=O)OC5CCC6(C)C(=CCC7C6CCC6(C)C(C(C)CCCC(C)C)CCC76)C5)CCN5CCCC5)CCC4(C)C3CCC12C (stereo not drawn) [Lipidoid 76-OCholB] | 65.0 | 96.3 | 98.7 | no evident morphological change | much more efficient than others | Strong green fluorescence signals | 79.8 | 66.4
3 | CC(C)CCCC(C)C1CCC2C3CC=C4CC(OC(=O)NCCSSCCOC(=O)CCN(CCC(=O)OCCSSCCNC(=O)OC5CCC6(C)C(=CCC7C6CCC6(C)C(C(C)CCCC(C)C)CCC76)C5)CCC5CCCN5C)CCC4(C)C3CCC12C (stereo not drawn) [Lipidoid 77-OCholB] | 90.3 | 90.7 | 97.9 | no evident morphological change | much more efficient than others | Strong green fluorescence signals | 73.5 | 66.4
4 | CC(C)CCCC(C)C1CCC2C3CC=C4CC(OC(=O)NCCSSCCOC(=O)CCN(CCC(=O)OCCSSCCNC(=O)OC5CCC6(C)C(=CCC7C6CCC6(C)C(C(C)CCCC(C)C)CCC76)C5)CCN(C)C)CCC4(C)C3CCC12C (stereo not drawn) [Lipidoid 78-OCholB] | 92.3 | 46.1 | 90.1 | – | – | – | 67.1 | –
5 | CC(C)CCCC(C)C1CCC2C3CC=C4CC(OC(=O)NCCSSCCOC(=O)CCN(CCCN(C)C)CCC(=O)OCCSSCCNC(=O)OC5CCC6(C)C(=CCC7C6CCC6(C)C(C(C)CCCC(C)C)CCC76)C5)CCC4(C)C3CCC12C (stereo not drawn) [Lipidoid 80-OCholB] | 71.4 | 88.9 | 97.0 | – | much more efficient than others | – | 55.6 | 54.7
6 | CCN(CC)CCCN(CCC(=O)OCCSSCCNC(=O)OC1CCC2(C)C(=CCC3C2CCC2(C)C(C(C)CCCC(C)C)CCC32)C1)CCC(=O)OCCSSCCNC(=O)OC1CCC2(C)C(=CCC3C2CCC2(C)C(C(C)CCCC(C)C)CCC32)C1 (stereo not drawn) [Lipidoid 81-OCholB] | 27.0 | 87.4 | 91.5 | – | much more efficient than others | – | 51.6 | 40.9
7 | CC(C)CCCC(C)C1CCC2C3CC=C4CC(OC(=O)NCCSSCCOC(=O)CCN(C)CCN(CCN(C)CCC(=O)OCCSSCCNC(=O)OC5CCC6(C)C(=CCC7C6CCC6(C)C(C(C)CCCC(C)C)CCC76)C5)CCN(C)CCC(=O)OCCSSCCNC(=O)OC5CCC6(C)C(=CCC7C6CCC6(C)C(C(C)CCCC(C)C)CCC76)C5)CCC4(C)C3CCC12C (stereo not drawn) [Lipidoid 304-OCholB] | 22.8 | – | 48.8 | – | – | – | 52.1 | –
